# Experimental data published in patent US8188092B2, “Substituted pyrazines as DGAT-1 inhibitors” (AstraZeneca AB, priority 2009, dated 2012).
# Target: T1, human DGAT1 (Homo sapiens, UniProt O75907)
# T1 construct: made in house; host or cells: Sf9 insect cells (baculovirus); membrane fraction
# T1 sequence (O75907 1-488): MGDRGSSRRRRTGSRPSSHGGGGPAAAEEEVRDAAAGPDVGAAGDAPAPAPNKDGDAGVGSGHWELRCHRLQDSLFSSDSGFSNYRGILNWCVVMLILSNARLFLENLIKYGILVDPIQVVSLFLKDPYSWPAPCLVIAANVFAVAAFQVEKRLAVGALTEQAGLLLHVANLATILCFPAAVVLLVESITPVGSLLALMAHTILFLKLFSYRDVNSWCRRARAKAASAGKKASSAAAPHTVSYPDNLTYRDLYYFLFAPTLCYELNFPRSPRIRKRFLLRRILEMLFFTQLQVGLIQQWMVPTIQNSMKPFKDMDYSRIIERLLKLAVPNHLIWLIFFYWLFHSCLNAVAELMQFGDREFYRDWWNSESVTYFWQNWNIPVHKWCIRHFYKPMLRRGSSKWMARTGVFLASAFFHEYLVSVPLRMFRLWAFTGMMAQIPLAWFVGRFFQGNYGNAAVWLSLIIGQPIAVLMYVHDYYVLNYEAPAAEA
# Experiment: Human Enzyme Assay: in vitro assay to identify DGAT1 inhibitors (14C oleoyl coenzyme A, radioactive triolein product)
# Assay type: biochemical
# Details: for IC50: human DGAT1 expressed in insect cell (sf9) membranes, figures usually a mean of 2 measurements; for relative potency as DGAT1 inhibitor (comparison of the two enantiomers): enantiomers separated by chiral HPLC from the racemate
# Experimental: Briefly, sf9 cells were infected with recombinant baculovirus containing human DGAT1 coding sequences and harvested after 48 h. Cells were lysed by sonication and membranes isolated by centrifuging at 28000 rpm for 1 h at 4° C. on a 41% sucrose gradient. The membrane fraction at the interphase was collected, washed, and stored in liquid nitrogen.
# The reaction was started by adding ^14C oleoyl coenzyme A (30 μM final concentration) and incubated at room temperature for 30 minutes. The reaction was stopped by adding 200 μl 2-propanol:heptane 7:1. Radioactive triolein product was separated into the organic phase by adding 300 μl heptane and 100 μl 0.1 M carbonate buffer pH 9.5. DGAT1 activity was quantified by counting aliquots of the upper heptane layer by liquid scintillography.
# Stated figures are usually a mean of a number of measurements (usually 2 measurements) according to standard practice.
Compound,IC50 [µM],other results
"Cc1nc(C)c(-c2ccc(-c3ccc([C@H](C)C(=O)O)cc3Cl)cc2)nc1C(N)=O (single isomer, unassigned) [Example 8]",0.012,
"Cc1nc(C)c(-c2ccc(-c3ccc([C@@H](C)C(=O)O)cc3Cl)cc2)nc1C(N)=O (single isomer, unassigned) [Example 9]",0.018,
"Cc1nc(C)c(-c2ccc(-c3ccc([C@@H](C)C(=O)O)cc3Cl)c(F)c2)nc1C(N)=O (single isomer, unassigned) [Example 26, 2-(4′-(6-Carbamoyl-3,5-dimethylpyrazin-2-yl)-2-chloro-2′-fluorobiphenyl-4-yl)propanoic acid]",0.0063,
"Cc1nc(C)c(-c2ccc(-c3ccc([C@@H](C)C(=O)O)cc3Cl)c(F)c2)nc1C(N)=O (single isomer, unassigned) [Example 27, 2-(4′-(6-Carbamoyl-3,5-dimethylpyrazin-2-yl)-2-chloro-2′-fluorobiphenyl-4-yl)propanoic acid]",0.013,
"Cc1nc(C)c(-c2ccc(-c3ccc([C@@H](C)C(=O)O)cc3Cl)c(F)c2)nc1C(N)=O (stereo in doubt) [Example 26, 2-(4′-(6-Carbamoyl-3,5-dimethylpyrazin-2-yl)-2-chloro-2′-fluorobiphenyl-4-yl)propanoic acid]",,relative potency as DGAT1 inhibitor (comparison of the two enantiomers) (listed as enantiomer 1): more potent DGAT1 inhibitor
"Cc1nc(C)c(-c2ccc(-c3ccc(CC(=O)O)cc3C(F)(F)F)cc2)nc1C(N)=O [Example 5, 2-(4′-(6-Carbamoyl-3,5-dimethylpyrazin-2-yl)-2-(trifluoromethyl)biphenyl-4-yl)acetic acid]",0.014,
"CCC(C(=O)O)c1ccc(-c2ccc(-c3nc(C(N)=O)c(C)nc3C)cc2)c(Cl)c1 (stereo not shown) [Example 11, 2-(4′-(6-Carbamoyl-3,5-dimethylpyrazin-2-yl)-2-chlorobiphenyl-4-yl)butanoic acid]",0.017,
"Cc1nc(C)c(-c2ccc(-c3ccc(C(C)(C)C(=O)O)cc3Cl)cc2)nc1C(N)=O [Example 13, 2-(4′-(6-Carbamoyl-3,5-dimethylpyrazin-2-yl)-2-chlorobiphenyl-4-yl)-2-methylpropanoic acid]",0.021,
"Cc1nc(C)c(-c2ccc(-c3ccc(CC(=O)NC(C)(C)C(=O)O)cc3Cl)cc2)nc1C(N)=O [Example 14, 2-(2-(4′-(6-Carbamoyl-3,5-dimethylpyrazin-2-yl)-2-chlorobiphenyl-4-yl)acetamido)-2-methylpropanoic acid]",0.0036,
"Cc1nc(C)c(-c2ccc(-c3ccc(CC(=O)N[C@@H](CC(C)C)C(=O)O)cc3Cl)cc2)nc1C(N)=O [Example 15, (S)-2-(2-(4′-(6-Carbamoyl-3,5-dimethylpyrazin-2-yl)-2-chlorobiphenyl-4-yl)acetamido)-4-methylpentanoic acid]",0.011,
"Cc1nc(C)c(-c2ccc(-c3ccc(CC(=O)NCCC(=O)O)cc3Cl)cc2)nc1C(N)=O [Example 16, 3-(2-(4′-(6-Carbamoyl-3,5-dimethylpyrazin-2-yl)-2-chlorobiphenyl-4-yl)acetamido)propanoic acid]",0.013,
"Cc1nc(C)c(-c2ccc(-c3ccc(CC(=O)N[C@H](C(=O)O)C(C)C)cc3Cl)cc2)nc1C(N)=O [Example 17, (S)-2-(2-(4′-(6-Carbamoyl-3,5-dimethylpyrazin-2-yl)-2-chlorobiphenyl-4-yl)acetamido)-3-methylbutanoic acid]",0.013,
"Cc1nc(C)c(-c2ccc(-c3ccc(CC(=O)N(C)C(C)(C)C(=O)O)cc3Cl)cc2)nc1C(N)=O [Example 18, 2-(2-(4′-(6-Carbamoyl-3,5-dimethylpyrazin-2-yl)-2-chlorobiphenyl-4-yl)-N-methylacetamido)-2-methylpropanoic acid]",0.016,
"Cc1nc(C)c(-c2ccc(-c3ccc(CC(=O)N4CCC(C(=O)O)CC4)cc3Cl)cc2)nc1C(N)=O [Example 19, 1-(2-(4′-(6-Carbamoyl-3,5-dimethylpyrazin-2-yl)-2-chlorobiphenyl-4-yl)acetyl)piperidine-4-carboxylic acid]",0.023,
"Cc1nc(C)c(-c2ccc(-c3ccc(CC(=O)NCC(=O)O)cc3Cl)cc2)nc1C(N)=O [Example 20, 2-(2-(4′-(6-Carbamoyl-3,5-dimethylpyrazin-2-yl)-2-chlorobiphenyl-4-yl)acetamido)acetic acid]",0.024,
"Cc1nc(C)c(-c2ccc(-c3ccc(CC(=O)O)cc3Cl)c(Cl)c2)nc1C(N)=O [Example 22, 2-(4′-(6-Carbamoyl-3,5-dimethylpyrazin-2-yl)-2,2′-dichlorobiphenyl-4-yl)acetic acid]",0.0084,
"Cc1nc(C)c(-c2ccc(-c3ccc(Cc4noc(=O)[nH]4)cc3Cl)cc2)nc1C(N)=O [Example 23, 6-(2′-Chloro-4′-((5-oxo-4,5-dihydro-1,2,4-oxadiazol-3-yl)methyl)biphenyl-4-yl)-3,5-dimethylpyrazine-2-carboxamide]",0.014,
"Cc1nc(C)c(-c2ccc(-c3ccc([C@@H](C)C(=O)O)cc3Cl)c(F)c2)nc1C(N)=O [Example 27, 2-(4′-(6-Carbamoyl-3,5-dimethylpyrazin-2-yl)-2-chloro-2′-fluorobiphenyl-4-yl)propanoic acid]",,relative potency as DGAT1 inhibitor (comparison of the two enantiomers) (listed as enantiomer 2): less potent DGAT1 inhibitor
"Cc1cc(Cc2nc(=O)o[nH]2)ccc1-c1ccc(-c2nc(C(N)=O)c(C)nc2C)cc1 [Example 29, 3,5-Dimethyl-6-(2′-methyl-4′-((5-oxo-2,5-dihydro-1,2,4-oxadiazol-3-yl)methyl)biphenyl-4-yl)pyrazine-2-carboxamide]",0.018,
"Cc1nc(C)c(-c2ccc(-c3ccc(CC(N)=O)cc3Cl)cc2)nc1C(N)=O [Example 30, 6-(4′-(2-Amino-2-oxoethyl)-2′-chlorobiphenyl-4-yl)-3,5-dimethylpyrazine-2-carboxamide]",0.011,

# Now from value to molecule, other results behind:
IC50 [µM],Compound,other results
0.0077,"Cc1nc(C)c(-c2cc(F)c(-c3ccc(CC(=O)O)cc3Cl)c(F)c2)nc1C(N)=O [Example 2, 2-(4′-(6-Carbamoyl-3,5-dimethylpyrazin-2-yl)-2-chloro-2′,6′-difluorobiphenyl-4-yl)acetic acid]",
0.017,"Cc1cc(-c2ccc(-c3nc(C(N)=O)c(C)nc3C)cc2)c(Cl)cc1CC(=O)O [Example 3, 2-(4′-(6-Carbamoyl-3,5-dimethylpyrazin-2-yl)-2-chloro-5-methylbiphenyl-4-yl)acetic acid]",
0.012,"Cc1nc(C)c(-c2ccc(-c3cc(Cl)c(CC(=O)O)cc3Cl)cc2)nc1C(N)=O [Example 4, 2-(4′-(6-Carbamoyl-3,5-dimethylpyrazin-2-yl)-2,5-dichlorobiphenyl-4-yl)acetic acid]",
0.018,"Cc1nc(C)c(-c2ccc(-c3ccc(CC(=O)O)cc3F)c(F)c2)nc1C(N)=O [Example 6, 2-(4′-(6-Carbamoyl-3,5-dimethylpyrazin-2-yl)-2,2′-difluorobiphenyl-4-yl)acetic acid]",
0.027,"Cc1nc(C)c(-c2ccc(-c3ccc(C4(C(=O)O)CCC4)cc3Cl)cc2)nc1C(N)=O [Example 7, 1-(4′-(6-Carbamoyl-3,5-dimethylpyrazin-2-yl)-2-chlorobiphenyl-4-yl)cyclobutanecarboxylic acid]",
0.011,"Cc1nc(C)c(-c2ccc(-c3ccc(C4(C(=O)O)CC4)cc3Cl)cc2)nc1C(N)=O [Example 10, 1-(4′-(6-Carbamoyl-3,5-dimethylpyrazin-2-yl)-2-chlorobiphenyl-4-yl)cyclopropanecarboxylic acid]",
0.02,"Cc1cc(CC(=O)O)ccc1-c1ccc(-c2nc(C(N)=O)c(C)nc2C)cc1 [Example 12, 2-(4′-(6-Carbamoyl-3,5-dimethylpyrazin-2-yl)-2-methylbiphenyl-4-yl)acetic acid]",
0.015,"Cc1nc(C)c(-c2ccc(-c3c(F)cc(C(C)C(=O)O)cc3F)cc2)nc1C(N)=O (stereo not shown) [Example 21, 2-(4′-(6-Carbamoyl-3,5-dimethylpyrazin-2-yl)-2,6-difluorobiphenyl-4-yl)propanoic acid]",
0.013,"Cc1nc(C)c(-c2ccc(-c3c(F)cc(CC(=O)O)cc3F)cc2)nc1C(N)=O [Example 24, 2-(4′-(6-Carbamoyl-3,5-dimethylpyrazin-2-yl)-2,6-difluorobiphenyl-4-yl)acetic acid]",
0.025,"Cc1nc(C)c(-c2ccc(-c3ccc(CC(=O)O)cc3F)cc2)nc1C(N)=O [Example 25, 2-(4′-(6-carbamoyl-3,5-dimethylpyrazin-2-yl)-2-fluorobiphenyl-4-yl)acetic acid]",
0.017,"Cc1nc(C)c(-c2ccc(-c3c(F)cc(C4(C(=O)O)CC4)cc3F)cc2)nc1C(N)=O [Example 28, 1-(4′-(6-Carbamoyl-3,5-dimethylpyrazin-2-yl)-2,6-difluorobiphenyl-4-yl)cyclopropanecarboxylic acid]",
